System: SU-DHL-4 cells
Assay: Inhibitory effect on cell viability in SU-DHL-4 cell line (Test Example 1)
Type: cell-based, human
Details: SU-DHL-4 cells, 72 hours, Cell Counting Kit-8; concentration showing 90% inhibition of cell viability; read-out: SU-DHL-4 Cell Viability Inhibition Rate IC90
Experimental: SU-DHL-4 cells (Code No. ACC 495, Deutsche Sammlung von Mikroorganismen and Zellkulturen GmbH; DSMZ) were cultured at 37° C. using a carbon dioxide incubator (95% air, 5% CO2) in RPMI1640 medium (Code No. 11875-093, Thermo Fisher Scientific) in which inactivated fetal bovine serum (FBS: Code No. 10099-148, Thermo Fisher Scientific) in an amount to give a final concentration of 10 vol % and penicillin/streptomycin solution (PS: […] The cells were passaged twice a week at a volume of 20-40 mL so as to maintain a cell concentration of 1×10^6 cells/mL or less. […] After seeding, the cells were precultured at 37° C. in a carbon dioxide gas incubator for 18 to 25 hours. […] At this time, the final concentration of DMSO was adjusted to be 0.1 vol %. After adding the test compound, the cells were cultured at 37° C. in a carbon dioxide gas incubator for 72 hours. Next, 0.020 mL of Cell Counting Kit-8 (Code No. CK04, DOJINDO) solution diluted 2-fold or 4-fold with phosphate buffered saline (PBS) was added to each well. Color reaction was carried out in a carbon dioxide gas incubator at 37° C. for 2 to 3 hours, and the absorbance at a wavelength of 450 nm was measured using SpectraMax 340PC (Molecular Devices). […] Absorbance of a well containing test compound • B: Absorbance of a well without addition of cells • C: Absorbance of a well without addition of test compound

IC90 | Structure (SMILES)
1.68 nM | CCC(=O)N1c2ccccc2[C@H](Nc2ccc(C(=O)NCCS(=O)(=O)NC3CCC(N[C@@H]4C[C@H](C)N(C(=O)CC)c5ccccc54)CC3)cc2)C[C@@H]1C (relative stereo) [Compound 9a, 4-(((2S,4R)-2-Methyl-1-propionyl-1,2,3,4-tetrahydroquinolin-4-yl)amino)-N-(2-(N-((1R,4R)-4-(((2S*,4R*)-2-methyl-1-propionyl-1,2,3,4-tetrahydroquinolin-4-yl)amino)cyclohexyl)sulfamoyl)ethyl)benzamide]
0.92 nM | CCC(=O)N1c2ccccc2[C@H](Nc2ccc(C(=O)NCC#CC(=O)NC3CC(N[C@@H]4C[C@H](C)N(C(=O)CC)c5ccccc54)C3)cc2)C[C@@H]1C (relative stereo) [Compound 10f, 4-(((2S,4R)-2-Methyl-1-propionyl-1,2,3,4-tetrahydroquinolin-4-yl)amino)-N-(4-(((1R,3R)-3-(((2S*,4R*)-2-methyl-1-propionyl-1,2,3,4-tetrahydroquinolin-4-yl)amino)cyclobutyl)amino)-4-oxobut-2-yn-1-yl)benzamide]
0.34 nM | CCC(=O)N1c2ccccc2[C@H](NC2CCC(NC(=O)C#CCNC(=O)c3ccc(C4=NCc5nnc(C)n5-c5sc(C)c(C)c54)cc3)CC2)C[C@@H]1C (relative stereo) [Compound 14c, N-(4-(((1R,4r)-4-(((2S*,4R*)-2-Methyl-1-propionyl-1,2,3,4-tetrahydroquinolin-4-yl)amino)cyclohexyl)amino)-4-oxobut-2-yn-1-yl)-4-(2,3,9-trimethyl-6H-thieno[3,2-f][1,2,4]triazolo[4,3-a][1,4]diazepin-4-yl)benzamide]

Further lines, the compound ahead of its results:

Structure (SMILES) | IC90
CCC(=O)N1c2ccccc2[C@H](Nc2ccc(-c3cnn(CC(=O)NC4CCC(N[C@@H]5C[C@H](C)N(C(=O)CC)c6ccccc65)CC4)c3)cc2)C[C@@H]1C (relative stereo) [Compound 9b, N-((1R,4R)-4-(((2S*,4R*)-2-Methyl-1-propionyl-1,2,3,4-tetrahydroquinolin-4-yl)amino)cyclohexyl)-2-(4-(4-(((2S,4R)-2-methyl-1-propionyl-1,2,3,4-tetrahydroquinolin-4-yl)amino)phenyl)-1H-pyrazol-1-yl)acetamide] | 3.18 nM
CCC(=O)N1c2ccccc2[C@H](Nc2ccc(NC(=O)NCC(=O)NC3CCC(N[C@@H]4C[C@H](C)N(C(=O)CC)c5ccccc54)CC3)cc2)C[C@@H]1C (relative stereo) [Compound 9c, N-((1R,4R)-4-(((2S*,4R*)-2-Methyl-1-propionyl-1,2,3,4-tetrahydroquinolin-4-yl)amino)cyclohexyl)-2-(3-(4-(((2S,4R)-2-methyl-1-propionyl-1,2,3,4-tetrahydroquinolin-4-yl)amino)phenyl)ureido)acetamide] | 12.4 nM
CCC(=O)N1c2ccccc2[C@H](NCc2ccc(C(=O)NCc3cn(-c4ccc(N[C@@H]5C[C@H](C)N(C(=O)CC)c6ccccc65)cc4)nn3)cc2)C[C@@H]1C (relative stereo) [Compound 10h, 4-((a2S*,4R*)-2-Methyl-1-propionyl-1,2,3,4-tetrahydroquinolin-4-yl)amino)methyl)-N-((1-(4-(((2S,4R)-2-methyl-1-propionyl-1,2,3,4-tetrahydroquinolin-4-yl)amino)phenyl)-1H-1,2,3-triazol-4-yl)methyl)benzamide] | 0.35 nM
CCC(=O)N1c2ccccc2[C@H](NCCCCC(=O)NCc2nnc(-c3ccc(N[C@@H]4C[C@H](C)N(C(=O)CC)c5ccccc54)cc3)o2)C[C@@H]1C (relative stereo) [Compound 12j, 5-(((2S*,4R*)-2-Methyl-1-propionyl-1,2,3,4-tetrahydroquinolin-4-yl)amino)-N-((5-(4-(((2S,4R)-2-methyl-1-propionyl-1,2,3,4-tetrahydroquinolin-4-yl)amino)phenyl)-1,3,4-oxadiazol-2-yl)methyl)pentane amide] | 17.4 nM

Source: patent US20220378923A1, “BET DEGRADER” (KYOWA KIRIN CO., LTD., priority 2019, published 2022)
